# Laboratory results from patent US9676766B2, “Triazolopyridines” (BAYER INTELLECTUAL PROPERTY GMBH, priority 2009, dated 2017).
# Target: T1, human kinase Mps-1 (Homo sapiens, UniProt P33981)
# T1 construct: N-terminally GST-tagged human full length recombinant Mps-1 kinase; purchased Invitrogen, Karslruhe, Germany PV4071
# T1 sequence (P33981 1-857): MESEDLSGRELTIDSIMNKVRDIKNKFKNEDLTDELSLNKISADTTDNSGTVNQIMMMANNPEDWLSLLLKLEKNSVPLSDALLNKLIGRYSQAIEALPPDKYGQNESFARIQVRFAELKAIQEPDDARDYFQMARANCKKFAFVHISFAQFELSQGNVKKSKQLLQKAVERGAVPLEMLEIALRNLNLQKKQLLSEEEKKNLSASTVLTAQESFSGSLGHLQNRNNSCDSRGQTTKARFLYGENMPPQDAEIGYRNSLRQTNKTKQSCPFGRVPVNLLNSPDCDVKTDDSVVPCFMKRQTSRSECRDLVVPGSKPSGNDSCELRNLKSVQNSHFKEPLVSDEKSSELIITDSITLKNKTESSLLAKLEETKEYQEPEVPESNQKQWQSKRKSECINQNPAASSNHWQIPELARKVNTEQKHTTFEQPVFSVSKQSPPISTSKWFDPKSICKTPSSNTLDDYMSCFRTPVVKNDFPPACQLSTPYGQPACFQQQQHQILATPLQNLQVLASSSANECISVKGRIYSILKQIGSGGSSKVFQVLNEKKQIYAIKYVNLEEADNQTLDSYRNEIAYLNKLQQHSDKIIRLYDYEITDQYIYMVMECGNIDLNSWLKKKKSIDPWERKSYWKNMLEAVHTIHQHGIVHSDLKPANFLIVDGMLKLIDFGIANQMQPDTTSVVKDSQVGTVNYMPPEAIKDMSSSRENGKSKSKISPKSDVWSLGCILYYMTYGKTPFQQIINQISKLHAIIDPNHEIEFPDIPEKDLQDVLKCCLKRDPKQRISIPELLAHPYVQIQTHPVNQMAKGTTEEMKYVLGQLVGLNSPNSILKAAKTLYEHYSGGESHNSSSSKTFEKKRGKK
# Test: Mps-1 Kinase Assay (TR-FRET)
# Type: biochemical
# Details: N-terminally GST-tagged human full length recombinant Mps-1; 10 μM ATP; 1 μM biotinylated peptide substrate; 60 min at 22° C.; read-out: MPS1 Inhibition, IC50 in M
row,Compound,IC50 [nM]
1,"N#Cc1ccccc1Nc1nc2ccc(-c3ccc(NC(=O)Cc4ccc(C(F)(F)F)cc4)cc3)cn2n1 [Example 3.1, N-(4-{2-[(2-cyanophenyl)amino][1,2,4]triazolo[1,5-a]pyridin-6-yl}phenyl)-2-[4-(trifluoromethyl)phenyl]acetamide]",8.2
2,"COc1ccccc1Nc1nc2ccc(-c3ccc(NC(=O)CC4CC4)cc3)cn2n1 [Example 4.2, 2-cyclopropyl-N-(4-{2-[(2-methoxyphenyl)amino][1,2,4]triazolo[1,5-a]pyridin-6-yl}phenyl)acetamide]",27
3,"N#Cc1ccccc1Nc1nc2ccc(-c3cccc(C(=O)Nc4ccccc4)c3)cn2n1 [Example 2.1, 3-{2-[(2-cyanophenyl)amino][1,2,4]triazolo[1,5-a]pyridin-6-yl}-N-phenylbenzamide]",65
4,"N#Cc1ccccc1Nc1nc2ccc(-c3ccc(NC(=O)Cc4cccc(F)c4)cc3)cn2n1 [Example 3.5, N-(4-{2-[(2-cyanophenyl)amino][1,2,4]triazolo[1,5-a]pyridin-6-yl}phenyl)-2-(3-fluorophenyl)acetamide]",1.1
5,"O=C(Nc1ccc(-c2ccc3nc(Nc4ccccc4C(F)(F)F)nn3c2)cc1)C1CC1 [Example 5.2, N-[4-(2-{[2-(trifluoromethyl)phenyl]amino}[1,2,4]triazolo[1,5-a]pyridin-6-yl)phenyl]cyclopropanecarboxamide]",180
6,"CO[C@H](C(=O)Nc1ccc(-c2ccc3nc(Nc4ccccc4C#N)nn3c2)cc1)c1ccccc1 (stereo in doubt) [Example 3.2, N-(4-{2-[(2-cyanophenyl)amino][1,2,4]triazolo[1,5-a]pyridin-6-yl}phenyl)-2-methoxy-2-phenylacetamide]",3.4
7,"O=C(Cc1cccnc1)Nc1ccc(-c2ccc3nc(Nc4ccccc4C(F)(F)F)nn3c2)cc1 [Example 5.8, 2-(pyridin-3-yl)-N-[4-(2-{[2-(trifluoromethyl)phenyl]amino}[1,2,4]triazolo[1,5-a]pyridin-6-yl)phenyl]acetamide]",99
8,"COc1ccccc1Nc1nc2ccc(-c3ccc(NC(=O)C4CC4)cc3)cn2n1 [Example 4.3, N-(4-{2-[(2-methoxyphenyl)amino][1,2,4]triazolo[1,5-a]pyridin-6-yl}phenyl)cyclopropanecarboxamide]",39
9,"COC(C(=O)Nc1ccc(-c2ccc3nc(Nc4ccccc4C(F)(F)F)nn3c2)cc1)c1ccccc1 (racemic) [Example 5.9, Rac-2-methoxy-2-phenyl-N-[4-(2-{[2-(trifluoromethyl)phenyl]amino}[1,2,4]-triazolo[1,5-a]pyridin-6-yl)phenyl]acetamide]",110
10,"COc1ccccc1Nc1nc2ccc(-c3ccc(C(=O)NC4CC4)cc3)cn2n1 [Example 1.1, N-Cyclopropyl-4-[2-(2-methoxy-phenylamino)-[1,2,4]triazolo[1,5-a]pyridin-6-yl]-benzamide]",370
11,"N#Cc1ccccc1Nc1nc2ccc(-c3ccc(NC(=O)Nc4ccccc4)cc3)cn2n1 [Example 3.7, 1-(4-{2-[(2-cyanophenyl)amino][1,2,4]triazolo[1,5-a]pyridin-6-yl}phenyl)-3-phenylurea]",12
12,"O=C(CC1CC1)Nc1ccc(-c2ccc3nc(Nc4ccccc4C(F)(F)F)nn3c2)cc1 [Example 5.3, 2-cyclopropyl-N-[4-(2-{[2-(trifluoromethyl)phenyl]amino}[1,2,4]triazolo[1,5-a]pyridin-6-yl)phenyl]acetamide]",81
13,"CN1CCN(CC(=O)Nc2ccc(-c3ccc4nc(Nc5ccccc5C(F)(F)F)nn4c3)cc2)CC1 [Example 5.4, 2-(4-methylpiperazin-1-yl)-N-[4-(2-{[2-(trifluoromethyl)phenyl]amino}[1,2,4]triazolo[1,5-a]pyridin-6-yl)phenyl]acetamide]",2200
14,"O=C(CN1CCCCC1)Nc1ccc(-c2ccc3nc(Nc4ccccc4C(F)(F)F)nn3c2)cc1 [Example 5.6, 2-(piperidin-1-yl)-N-[4-(2-{[2-(trifluoromethyl)phenyl]amino}[1,2,4]triazolo[1,5-a]pyridin-6-yl)phenyl]acetamide]",880
15,"N#Cc1ccccc1Nc1nc2ccc(-c3ccc(NC(=O)Cc4cccnc4)cc3)cn2n1 [Example 3.8, N-(4-{2-[(2-cyanophenyl)amino][1,2,4]triazolo[1,5-a]pyridin-6-yl}phenyl)-2-(pyridin-3-yl)acetamide]",3.5
16,"O=C(Cc1ccccc1)Nc1ccc(-c2ccc3nc(Nc4ccccc4C(F)(F)F)nn3c2)cc1 [Example 5.1, 2-phenyl-N-[4-(2-{[2-(trifluoromethyl)phenyl]amino}[1,2,4]triazolo[1,5-a]pyridin-6-yl)phenyl]acetamide]",7.1

# Continued, values first:
row,IC50 [nM],Compound
1,360,"COc1ccccc1Nc1nc2ccc(-c3cccc(NS(=O)(=O)c4ccccc4)c3)cn2n1 [Example 8.6, N-(3-{2-[(2-methoxyphenyl)amino][1,2,4]triazolo[1,5-a]pyridin-6-yl}phenyl)benzenesulfonamide]"
2,2.9,"N#Cc1ccccc1Nc1nc2ccc(-c3cccc(C(=O)NC4CCCC4)c3)cn2n1 [Example 9.2, 3-{2-[(2-cyanophenyl)amino][1,2,4]triazolo[1,5-a]pyridin-6-yl}-N-cyclopentylbenzamide]"
3,21,"N#Cc1ccccc1Nc1nc2ccc(-c3cccc(C(=O)NCc4ccccc4)c3)cn2n1 [Example 9.4, N-benzyl-3-{2-[(2-cyanophenyl)amino][1,2,4]triazolo[1,5-a]pyridin-6-yl}benzamide]"
4,66,"COc1ccccc1Nc1nc2ccc(-c3cccc(NS(=O)(=O)CC4CC4)c3)cn2n1 [Example 8.3, 1-Cyclopropyl-N-(3-{2-[(2-methoxyphenyl)amino][1,2,4]triazolo[1,5-a]pyridin-6-yl}phenyl)methanesulfonamide]"
5,74,"CN1CCC(NC(=O)c2cccc(-c3ccc4nc(Nc5ccccc5C#N)nn4c3)c2)CC1 [Example 9.3, 3-{2-[(2-cyanophenyl)amino][1,2,4]triazolo[1,5-a]pyridin-6-yl}-N-(1-methylpiperidin-4-yl)benzamide]"
6,59,"COc1ccccc1Nc1nc2ccc(-c3cccc(NC(=O)C4CC4)c3)cn2n1 [Example 8.2, N-(3-{2-[(2-methoxyphenyl)amino][1,2,4]triazolo[1,5-a]pyridin-6-yl}phenyl)cyclopropanecarboxamide]"
7,84,"COc1ccccc1Nc1nc2ccc(-c3cccc(NC(=O)NC4CC4)c3)cn2n1 [Example 8.9, 1-cyclopropyl-3-(3-{2-[(2-methoxyphenyl)amino][1,2,4]triazolo[1,5-a]pyridin-6-yl}phenyl)urea]"
8,470,"COc1ccccc1Nc1nc2ccc(-c3cccc(NC(=O)NCCN4CCOCC4)c3)cn2n1 [Example 8.13, 1-(3-{2-[(2-methoxyphenyl)amino][1,2,4]triazolo[1,5-a]pyridin-6-yl}phenyl)-3-[2-(morpholin-4-yl)ethyl]urea]"
9,660,"COc1ccccc1Nc1nc2ccc(-c3cccc(NC(=O)Nc4ccncc4)c3)cn2n1 [Example 8.14, 1-(3-{2-[(2-methoxyphenyl)amino][1,2,4]triazolo[1,5-a]pyridin-6-yl}phenyl)-3-pyridin-4-ylurea]"
10,100,"COc1ccccc1Nc1nc2ccc(-c3cccc(NC(=O)N4CCOCC4)c3)cn2n1 [Example 8.10, N-(3-{2-[(2-methoxyphenyl)amino][1,2,4]triazolo[1,5-a]pyridin-6-yl}phenyl)morpholine-4-carboxamide]"
11,4.4,"N#Cc1ccccc1Nc1nc2ccc(-c3cccc(C(=O)NC4CC4)c3)cn2n1 [Example 9.5, 3-{2-[(2-cyanophenyl)amino][1,2,4]triazolo[1,5-a]pyridin-6-yl}-N-cyclopropylbenzamide]"
12,290,"COc1ccccc1Nc1nc2ccc(-c3cccc(NC(=O)Cc4ccccc4)c3)cn2n1 [Example 8.1, N-(3-{2-[(2-methoxyphenyl)amino][1,2,4]triazolo[1,5-a]pyridin-6-yl}phenyl)-2-phenylacetamide]"
13,270,"COc1ccccc1Nc1nc2ccc(-c3cccc(NC(=O)Nc4cccnc4)c3)cn2n1 [Example 8.12, 1-(3-{2-[(2-methoxyphenyl)amino][1,2,4]triazolo[1,5-a]pyridin-6-yl}phenyl)-3-pyridin-3-ylurea]"
14,620,"COc1ccccc1Nc1nc2ccc(-c3cccc(NC(=O)N4CCN(C)CC4)c3)cn2n1 [Example 8.8, N-(3-{2-[(2-methoxyphenyl)amino][1,2,4]triazolo[1,5-a]pyridin-6-yl}phenyl)-4-methylpiperazine-1-carboxamide]"
15,290,"COc1ccccc1Nc1nc2ccc(-c3cccc(NS(=O)(=O)C4CC4)c3)cn2n1 [Example 8.4, N-(3-{2-[(2-methoxyphenyl)amino][1,2,4]triazolo[1,5-a]pyridin-6-yl}phenyl)cyclopropanesulfonamide]"
